The structures appear in SMILES notation. Like-named read-outs stand apart in the source and are kept apart here.

The target in assay [1] is T1, Human recombinant PDE3A (hPDE3A) (Homo sapiens, UniProt Q14432).
T1 construct: purchased Scottish Biomedical; host or cells: Sf9 insect cells
The assay is described as follows: In vitro assay PDE3A (SPA, 3H-cAMP hydrolysis).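 On all read-outs here: the method names PDE3A and the table heading PDE3B.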 It counts as biochemical. As to conditions: for IC50: hPDE3B pIC50, read-out: pIC50 (converted); for Emax: read-out: hPDE3B Emax, read-out: Emax. The gist of the method:
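Radiometric SPA measuring [3H]-cAMP hydrolysis (0.4 μM cAMP, 2.4 μCi/ml) over 60 min at room temperature, in Tris pH 7.8 buffer with MgCl2 and EGTA, 1% DMSO. Enzyme: recombinant human brain PDE3A expressed in Sf9 cells, used as partially purified lysate. Counts compared with enzyme-free blanks and vehicle controls.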

For a further assay, the target named is T2, PDE2A (Rattus norvegicus, UniProt Q01062).
T2 construct: Twenty μm-thick striatal sections were cut; from tissue; host or cells: rat brain, striatal sections
T2 sequence (Q01062 1-928): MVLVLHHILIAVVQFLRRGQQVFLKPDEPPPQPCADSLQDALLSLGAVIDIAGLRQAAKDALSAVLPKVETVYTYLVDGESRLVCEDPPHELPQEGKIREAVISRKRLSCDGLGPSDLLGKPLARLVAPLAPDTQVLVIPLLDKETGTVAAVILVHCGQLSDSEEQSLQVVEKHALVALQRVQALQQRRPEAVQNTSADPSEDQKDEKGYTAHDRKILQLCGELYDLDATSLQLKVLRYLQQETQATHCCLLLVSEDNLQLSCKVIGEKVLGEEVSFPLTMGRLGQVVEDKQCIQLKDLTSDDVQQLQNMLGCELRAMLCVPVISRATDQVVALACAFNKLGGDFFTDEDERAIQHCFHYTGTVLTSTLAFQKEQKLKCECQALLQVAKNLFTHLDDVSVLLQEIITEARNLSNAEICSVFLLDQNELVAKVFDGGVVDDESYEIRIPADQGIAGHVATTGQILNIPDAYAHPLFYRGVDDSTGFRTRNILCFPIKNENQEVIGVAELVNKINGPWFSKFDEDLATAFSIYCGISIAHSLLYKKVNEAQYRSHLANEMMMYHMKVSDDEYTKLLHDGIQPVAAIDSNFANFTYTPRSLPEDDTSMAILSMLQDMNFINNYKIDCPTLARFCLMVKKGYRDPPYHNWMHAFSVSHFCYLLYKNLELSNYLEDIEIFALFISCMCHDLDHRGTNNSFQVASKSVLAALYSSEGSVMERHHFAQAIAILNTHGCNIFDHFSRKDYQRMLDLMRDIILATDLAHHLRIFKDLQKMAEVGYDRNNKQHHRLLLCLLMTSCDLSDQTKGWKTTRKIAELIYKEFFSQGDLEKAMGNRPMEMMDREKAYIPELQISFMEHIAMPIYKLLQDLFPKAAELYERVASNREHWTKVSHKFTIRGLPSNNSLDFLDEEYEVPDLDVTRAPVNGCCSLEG
The assay is described as follows: PDE2 occupancy by test compounds, ex-vivo autoradiography with [3H]B-17a. As to conditions: for receptor occupancy at 10 mg/kg: percentage receptor occupancy, ex-vivo autoradiography, striatum. Format: in vivo, Male Wistar rats.

Assay [2] concerns the target T3, Human recombinant PDE10A (hPDE10A) (Homo sapiens, UniProt Q9Y233).
T3 construct: His tag (inferred from metal chelate purification); made in house; host or cells: Sf9 insect cells (baculovirus)
Description: In vitro assay PDE10A, human clone (SPA, 3H-cAMP hydrolysis). Format: biochemical. In short, it runs like this: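 Hydrolysis of 3H-cAMP (60 nM cAMP, 0.008 μCi tracer) proceeded for 60 min at room temperature, with the product detected by SPA bead scintillation counting. The enzyme was hPDE10A from baculovirus-infected Sf9 cells in Tris pH 7.8 buffer with MgCl2 and EGTA, and compounds were at 1% DMSO final. Blanks lacked enzyme.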

Assay [3] concerns the target T4, Human recombinant PDE2A (hPDE2A) (Homo sapiens, UniProt O00408).
T4 construct: His tag (inferred from metal chelate purification); made in house; host or cells: Sf9 insect cells (baculovirus)
Description: In vitro assay PDE2A (SPA, 3H-cGMP hydrolysis). It counts as biochemical. As to conditions: for Emax: read-out: hPDE2A Emax.

The mark [4] stands for this setting: human clone (h), default, read-out: hPDE10A2 Emax.
The mark [5] stands for this setting: human clone (h), default, read-out: hPDE10A2 pIC50 (converted).
Where [6] appears, read: human recombinant PDE2A, 10 μM cGMP substrate, read-out: hPDE2A pIC50 (converted).
Setting [7] is: read-out: hPDE2A pIC50 (converted).
Setting [8] is: hPDE2A pIC50, human recombinant PDE2A, 10 μM cGMP substrate.

T1 sequence (Q14432 whole entry): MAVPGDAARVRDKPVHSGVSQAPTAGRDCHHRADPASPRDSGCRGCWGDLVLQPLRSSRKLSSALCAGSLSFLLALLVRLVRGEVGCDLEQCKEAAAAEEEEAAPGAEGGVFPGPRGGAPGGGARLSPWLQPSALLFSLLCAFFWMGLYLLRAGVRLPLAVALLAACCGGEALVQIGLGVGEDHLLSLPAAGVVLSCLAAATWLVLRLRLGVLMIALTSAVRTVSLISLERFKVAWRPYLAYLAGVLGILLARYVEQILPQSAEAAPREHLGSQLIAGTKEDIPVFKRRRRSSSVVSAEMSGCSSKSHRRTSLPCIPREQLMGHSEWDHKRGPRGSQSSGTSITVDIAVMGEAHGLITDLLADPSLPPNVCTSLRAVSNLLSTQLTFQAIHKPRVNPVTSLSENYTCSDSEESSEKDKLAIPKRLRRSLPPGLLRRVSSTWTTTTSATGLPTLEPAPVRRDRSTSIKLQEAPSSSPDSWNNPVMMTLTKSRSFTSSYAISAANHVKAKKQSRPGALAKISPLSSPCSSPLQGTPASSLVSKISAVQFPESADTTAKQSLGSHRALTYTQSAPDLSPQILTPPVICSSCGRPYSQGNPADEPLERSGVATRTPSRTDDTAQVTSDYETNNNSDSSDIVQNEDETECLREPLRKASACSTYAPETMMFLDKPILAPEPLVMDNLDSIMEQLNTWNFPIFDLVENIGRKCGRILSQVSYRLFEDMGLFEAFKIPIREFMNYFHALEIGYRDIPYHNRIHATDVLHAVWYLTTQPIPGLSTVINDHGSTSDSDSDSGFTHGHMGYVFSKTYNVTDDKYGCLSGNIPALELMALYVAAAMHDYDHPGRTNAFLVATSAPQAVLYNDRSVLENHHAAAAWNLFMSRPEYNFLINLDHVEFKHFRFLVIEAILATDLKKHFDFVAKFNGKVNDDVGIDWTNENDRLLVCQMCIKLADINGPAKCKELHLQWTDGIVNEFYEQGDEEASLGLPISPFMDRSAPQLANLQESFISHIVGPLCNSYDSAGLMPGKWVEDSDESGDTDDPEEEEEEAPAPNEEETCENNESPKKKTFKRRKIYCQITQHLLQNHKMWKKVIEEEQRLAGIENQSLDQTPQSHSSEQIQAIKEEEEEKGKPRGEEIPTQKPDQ
T4 sequence (O00408 whole entry): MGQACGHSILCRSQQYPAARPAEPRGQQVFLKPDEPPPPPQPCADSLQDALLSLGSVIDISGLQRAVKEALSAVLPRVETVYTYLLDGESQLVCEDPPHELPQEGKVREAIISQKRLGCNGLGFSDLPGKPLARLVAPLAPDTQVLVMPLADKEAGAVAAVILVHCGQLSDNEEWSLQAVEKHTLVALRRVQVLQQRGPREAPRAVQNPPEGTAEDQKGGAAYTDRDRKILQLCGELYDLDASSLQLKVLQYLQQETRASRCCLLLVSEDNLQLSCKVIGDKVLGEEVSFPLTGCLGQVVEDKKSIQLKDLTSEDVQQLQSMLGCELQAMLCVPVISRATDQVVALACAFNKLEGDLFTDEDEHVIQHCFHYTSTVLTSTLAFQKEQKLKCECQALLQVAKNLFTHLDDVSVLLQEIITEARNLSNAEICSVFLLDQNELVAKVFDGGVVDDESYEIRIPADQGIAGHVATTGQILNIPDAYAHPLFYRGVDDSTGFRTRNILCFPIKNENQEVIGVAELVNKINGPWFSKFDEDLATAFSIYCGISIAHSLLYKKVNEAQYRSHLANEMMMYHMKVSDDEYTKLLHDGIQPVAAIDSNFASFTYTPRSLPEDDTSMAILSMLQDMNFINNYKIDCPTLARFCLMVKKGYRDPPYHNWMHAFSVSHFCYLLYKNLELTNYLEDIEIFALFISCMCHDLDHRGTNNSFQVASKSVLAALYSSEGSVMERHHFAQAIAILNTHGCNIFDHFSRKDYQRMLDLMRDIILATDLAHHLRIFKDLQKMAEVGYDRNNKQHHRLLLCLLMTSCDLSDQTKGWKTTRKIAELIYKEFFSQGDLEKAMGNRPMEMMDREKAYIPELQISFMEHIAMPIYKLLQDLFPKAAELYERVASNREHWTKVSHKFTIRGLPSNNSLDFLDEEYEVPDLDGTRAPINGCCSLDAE
T3 sequence (Q9Y233 267-1055): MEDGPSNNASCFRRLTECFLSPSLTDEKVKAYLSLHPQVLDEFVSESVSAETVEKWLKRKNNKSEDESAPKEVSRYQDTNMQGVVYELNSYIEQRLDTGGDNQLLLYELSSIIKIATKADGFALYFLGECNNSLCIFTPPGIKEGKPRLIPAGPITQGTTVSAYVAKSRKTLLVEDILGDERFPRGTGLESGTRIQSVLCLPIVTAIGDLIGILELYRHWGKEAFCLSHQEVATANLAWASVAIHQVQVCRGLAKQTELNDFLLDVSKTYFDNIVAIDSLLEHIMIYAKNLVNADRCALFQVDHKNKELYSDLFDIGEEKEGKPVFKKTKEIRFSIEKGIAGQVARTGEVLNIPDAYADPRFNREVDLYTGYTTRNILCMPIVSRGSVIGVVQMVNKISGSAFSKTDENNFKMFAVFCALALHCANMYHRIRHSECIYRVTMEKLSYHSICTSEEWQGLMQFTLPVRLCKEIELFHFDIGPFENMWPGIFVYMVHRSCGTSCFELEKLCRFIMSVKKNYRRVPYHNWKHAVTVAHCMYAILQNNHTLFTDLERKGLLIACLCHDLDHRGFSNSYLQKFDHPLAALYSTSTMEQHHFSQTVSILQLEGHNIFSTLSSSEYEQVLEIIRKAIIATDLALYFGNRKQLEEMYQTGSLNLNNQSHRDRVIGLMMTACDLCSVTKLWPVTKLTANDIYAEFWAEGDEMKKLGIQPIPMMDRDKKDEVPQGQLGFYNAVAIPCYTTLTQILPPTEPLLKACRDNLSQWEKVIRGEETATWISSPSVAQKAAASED

The Emax is the maximal effect, on the per cent scale that the assay sets. Take `COc1cc(C(=O)N2CC[C@@H](C)[C@H](c3cc(C(F)F)nc4ncnn34)C2)c(C)cn1` [Compound 53]: the IC50 was 6760 nM in assay [1], 776 nM in assay [2] (setting [5]), 5.62 nM in assay [3] (setting [6]) and 5.62 nM in assay [3] (setting [7]). For the same compound, the maximal response (Emax) was 62% in assay [1], 89% in assay [2] (setting [4]), 100% in assay [3] (human recombinant PDE2A) and 100% in assay [3]. In addition, the receptor occupancy at 10 mg/kg at PDE2A (po, route PO (oral)) amounted to 22%.
In the case of `C[C@@H]1CCN(C(=O)c2ccc(Cl)c(OC(F)F)c2)C[C@H]1c1cc(C(F)F)nc2ncnn12` [Compound 121], the IC50 was 513 nM in assay [1], 58.9 nM in assay [2] (setting [5]), 1.78 nM in assay [3] (setting [6]) and 1.78 nM in assay [3] (setting [7]). Besides, the Emax amounted to 95% in assay [1], 96% in assay [2] (setting [4]), 99% in assay [3] (human recombinant PDE2A) and 99% in assay [3]. Further, the receptor occupancy at 10 mg/kg at PDE2A (po, route PO (oral)) was -15%.
As to `COc1c(C)cc(C(=O)N2CC[C@@H](C)[C@](F)(c3cc(C(F)F)nc4ncnn34)C2)cc1C` [Compound 74], the IC50 is more than 10000 nM in assay [1], more than 10000 nM in assay [2] (setting [5]), 30.2 nM in assay [3] (setting [6]) and 30.2 nM in assay [3] (setting [7]). Besides, the Emax came out at 30% in assay [1], 36% in assay [2] (setting [4]), 101% in assay [3] (human recombinant PDE2A) and 101% in assay [3]. For the same compound, the receptor occupancy at 10 mg/kg on PDE2A (sc, route SC (subcutaneous)) was 14%.
As for `COc1ccc(C(=O)N2CC[C@@H](C)[C@H](c3cc(C(F)F)nc4ncnn34)C2)nc1` [Compound 66], the IC50 in assay [1] was more than 10000 nM; in assay [2] (setting [5]), 2290 nM; in assay [3] (setting [6]), 17.4 nM; in assay [3] (setting [7]) it was 17.4 nM. Further, the Emax in assay [1] is 48%; in assay [2] (setting [4]), 79%; in assay [3] (human recombinant PDE2A), 99%; in assay [3] it was 99%. For the same compound, the receptor occupancy at 10 mg/kg on PDE2A (po, route PO (oral)) is -14%.
With `C[C@@H]1CCN(C(=O)c2cc(Cl)nc(Cl)c2F)C[C@H]1c1cc(C(F)F)nc2ncnn12` [Compound 71], the IC50 in assay [1] is more than 1000 nM; in assay [2] (setting [5]), 339 nM; in assay [3] (setting [6]) it was 1.86 nM; in assay [3] (setting [7]), 1.86 nM. The Emax in assay [1] turned out to be 32%; in assay [2] (setting [4]), 94%; in assay [3] (human recombinant PDE2A) it was 98%; in assay [3], 98%. Also, the receptor occupancy at 10 mg/kg on PDE2A (sc, route SC (subcutaneous)) amounted to 49%.
`Cc1cc([C@@H]2CN(C(=O)c3cc(C)c(F)c(C)c3)CC[C@H]2C)n2ncnc2n1` [Compound 117]: the IC50 in assay [1] is 851 nM; in assay [2] (setting [5]), 9.77 nM; in assay [3] (hPDE2A pIC50), 1.15 nM. Further, the Emax in assay [1] stood at 97%; in assay [2] (setting [4]), 99%; in assay [3] it was 100%. Also, the receptor occupancy at 10 mg/kg at PDE2A (po, route PO (oral)) is 8%.
For `Cc1cc(C(=O)N2CC[C@@H](C)[C@H](c3cc(C)nc4ncnn34)C2)cc(C)n1` [Compound 1a], the IC50 in assay [1] is 2090 nM; in assay [2] (setting [5]), 12.9 nM; in assay [3] (hPDE2A pIC50), 0.794 nM; in assay [3] (setting [8]), 0.794 nM. The Emax worked out at 65% in assay [1], 98% in assay [2] (setting [4]) and 100% in assay [3]. Moreover, the receptor occupancy at 10 mg/kg at PDE2A (po, route PO (oral)) amounted to 37%.
As to `Cc1cc([C@@H]2CN(C(=O)c3cc(Cl)ncc3C)CC[C@H]2C)n2ncnc2n1` [Compound 18], the IC50 in assay [1] was 6460 nM; in assay [2] (setting [5]) it was 195 nM; in assay [3] (setting [6]), 4.68 nM; in assay [3] (setting [7]) it was 4.68 nM. The Emax worked out at 65% in assay [1], 97% in assay [2] (setting [4]), 100% in assay [3] (human recombinant PDE2A) and 100% in assay [3]. In addition, the receptor occupancy at 10 mg/kg on PDE2A (po, route PO (oral)) came out at 4%.
Regarding `Cc1cc([C@@H]2CN(C(=O)c3cc(C)c(Cl)c(C)c3)CC[C@H]2C)n2ncnc2n1` [Compound 109], the IC50 was 457 nM in assay [1], 6.61 nM in assay [2] (setting [5]), 0.933 nM in assay [3] (hPDE2A pIC50) and 0.933 nM in assay [3] (setting [8]). Moreover, the Emax in assay [1] turned out to be 98%; in assay [2] (setting [4]), 99%; in assay [3], 101%. For the same compound, on PDE2A (po, route PO (oral)), the receptor occupancy at 10 mg/kg stood at 43%.
`Cc1cc([C@@H]2CN(C(=O)c3cc(C)c(C)cn3)CC[C@H]2C)n2ncnc2n1` [Compound 3a]: the IC50 in assay [1] was 3470 nM; in assay [2] (setting [5]) it was 269 nM; in assay [3] (hPDE2A pIC50), 5.75 nM; in assay [3] (setting [8]), 5.75 nM. Moreover, the Emax in assay [1] came to 77%; in assay [2] (setting [4]), 93%; in assay [3], 97%. Moreover, the receptor occupancy at 10 mg/kg at PDE2A (po, route PO (oral)) was determined as 0%.
One may read the ED50 as the dose at which the effect has come halfway, by size or by number of responders. As to `CCc1cc(C(=O)N2CC[C@@H](C)[C@H](c3cc(C(F)F)nc4ncnn34)C2)cc(C)n1` [Compound 80], the IC50 was 4170 nM in assay [1], 81.3 nM in assay [2] (setting [5]), 0.794 nM in assay [3] (setting [6]) and 0.794 nM in assay [3] (setting [7]). Moreover, the Emax in assay [1] was found to be 71%; in assay [2] (setting [4]), 98%; in assay [3] (human recombinant PDE2A) it was 100%; in assay [3], 100%. For the same compound, the ED50 on PDE2A (route PO (oral), drug dose producing 50% receptor occupancy, read-out: PDE Occupancy ED50) is 8.63 mg/kg. Further, at PDE2A (sc, route SC (subcutaneous)), the receptor occupancy at 10 mg/kg was 52%.
Turning to `Cc1nc2cccc(C(=O)N3CC[C@@H](C)[C@H](c4cc(C(F)F)nc5ncnn45)C3)c2o1` [Compound 50], the IC50 was more than 10000 nM in assay [1], 724 nM in assay [2] (setting [5]), 3.09 nM in assay [3] (setting [6]) and 3.09 nM in assay [3] (setting [7]). The Emax in assay [1] is 61%; in assay [2] (setting [4]), 93%; in assay [3] (human recombinant PDE2A) it was 100%; in assay [3], 100%. For the same compound, at PDE2A (po, route PO (oral)), the receptor occupancy at 10 mg/kg was -30%.
In the case of `C[C@@H]1CCN(C(=O)c2ccnc(Cl)c2)C[C@H]1c1cc(C(F)F)nc2ncnn12` [Compound 42], the IC50 in assay [1] is more than 10000 nM; in assay [2] (setting [5]), 316 nM; in assay [3] (setting [6]) it was 1.15 nM; in assay [3] (setting [7]) it was 1.15 nM. Moreover, the Emax in assay [1] is 48%; in assay [2] (setting [4]), 95%; in assay [3] (human recombinant PDE2A), 100%; in assay [3] it was 100%. In addition, at PDE2A (po, route PO (oral)), the receptor occupancy at 10 mg/kg was 54%.
As to `C[C@@H]1CCN(C(=O)c2cc(Cl)ncc2F)C[C@H]1c1cc(C(F)F)nc2ncnn12` [Compound 54], the IC50 in assay [1] was 9550 nM; in assay [2] (setting [5]), 661 nM; in assay [3] (setting [6]) it was 4.17 nM; in assay [3] (setting [7]), 4.17 nM. In addition, the Emax worked out at 51% in assay [1], 89% in assay [2] (setting [4]), 100% in assay [3] (human recombinant PDE2A) and 100% in assay [3]. Moreover, at PDE2A (po, route PO (oral)), the receptor occupancy at 10 mg/kg is 39%.
With `Cc1cc(C(=O)N2[C@H]3CC[C@H](c4cc(C(F)F)nc5ncnn45)[C@@H]2CC3)cc(C(F)(F)F)n1` [Compound 286], the IC50 in assay [1] was more than 10000 nM; in assay [2] (human clone by default (no (r) mark), read-out: hPDE10A2 or rPDE10A2 pIC50 (converted)), 2240 nM; in assay [3] (setting [7]), 6.92 nM. Besides, the Emax in assay [1] worked out at 14%; in assay [2] (human clone by default (no (r) mark), read-out: hPDE10A2 or rPDE10A2 Emax) it was 79%; in assay [3], 101%. Besides, the receptor occupancy at 10 mg/kg on PDE2A (route PO (oral)) came to 5%.
